In PubChem BioAssay AID256 (DTP/NCI, 2004) one finds T/C data, which are given here for 23 compounds.

This assay deals with CD2F1 mice, L1210 leukemia ip, survival T/C. The assay is described as follows: NCI In Vivo Anticancer Drug Screen. Data for tumor model L1210 Leukemia (intraperitoneal) in CD2F1 (CDF1) mice. The conditions noted are these: higher = longer survival. Summed up: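 Each value reflects a quotient of treated over vehicle control outcomes in mice with a transplanted tumor.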
Setting [1] is: endpoint: mean survival time, dose: 100.0 mg/kg/injection, schedule: Q01DX009 (ip), vehicle: saline.
[2] abbreviates: endpoint: mean survival time, dose: 200.0 mg/kg/injection, schedule: Q01DX009 (ip), vehicle: saline.
Setting [3] is: endpoint: mean survival time, dose: 400.0 mg/kg/injection, schedule: Q01DX009 (ip), vehicle: saline.
The mark [4] stands for this setting: endpoint: mean survival time, dose: 100.0 mg/kg/injection, schedule: Q01DX009 (ip), vehicle: saline with Tween-80.
The mark [5] stands for this setting: endpoint: mean survival time, dose: 200.0 mg/kg/injection, schedule: Q01DX009 (ip), vehicle: saline with Tween-80.
The mark [6] stands for this setting: endpoint: mean survival time, dose: 100.0 mg/kg/injection, schedule: Q01DX001 (ip), vehicle: saline with Tween-80.
Where [7] appears, read: endpoint: mean survival time, dose: 200.0 mg/kg/injection, schedule: Q01DX001 (ip), vehicle: saline with Tween-80.
Setting [8] is: endpoint: mean survival time, dose: 400.0 mg/kg/injection, schedule: Q01DX001 (ip), vehicle: saline with Tween-80.
Where [9] appears, read: endpoint: mean survival time, dose: 50.0 mg/kg/injection, schedule: Q04DX003 (ip), vehicle: saline.
Where [10] appears, read: endpoint: mean survival time, dose: 50.0 mg/kg/injection, schedule: Q04DX003 (ip), vehicle: saline with Tween-80.
[11] abbreviates: endpoint: mean survival time, dose: 100.0 mg/kg/injection, schedule: Q04DX003 (ip), vehicle: saline with Tween-80.
The mark [12] stands for this setting: endpoint: mean survival time, dose: 200.0 mg/kg/injection, schedule: Q04DX003 (ip), vehicle: saline with Tween-80.
Setting [13] is: endpoint: mean survival time, dose: 400.0 mg/kg/injection, schedule: Q04DX003 (ip), vehicle: saline with Tween-80.
Setting [14] is: endpoint: mean survival time, dose: 100.0 mg/kg/injection, schedule: Q04DX003 (ip), vehicle: saline.
Setting [15] is: endpoint: mean survival time, dose: 200.0 mg/kg/injection, schedule: Q04DX003 (ip), vehicle: saline.
Setting [16] is: endpoint: mean survival time, dose: 100.0 mg/kg/injection, schedule: Q01DX001 (ip), vehicle: Klucel (hydroxypropylcellulose) (HPC).
Where [17] appears, read: endpoint: mean survival time, dose: 200.0 mg/kg/injection, schedule: Q01DX001 (ip), vehicle: Klucel (hydroxypropylcellulose) (HPC).

Where “and” joins values, the source holds several entries; their conditions need not be identical. Equal entries are not always repeated. Toxic doses and inconclusive results are not listed.

For `CC(C)CC(NC(=O)C(CSC(c1ccccc1)(c1ccccc1)c1ccccc1)NC(c1ccccc1)(c1ccccc1)c1ccccc1)C(=O)O` (stereo not given), the T/C is, setting by setting: (endpoint: mean survival time, dose: 50.0 mg/kg/injection, schedule: Q01DX009 (ip), vehicle: saline) 97 % of control; under setting [1], 91 % of control; under setting [2], 92 % of control; under setting [3], 91 % of control.

For the compound `Cc1cccc(Cl)c1NC(=O)Nc1cc(Cl)ccc1Oc1c(Cl)cc(Cl)cc1S(=O)(=O)O`, the T/C is 90 % of control under setting [4] and 90 % of control under setting [5].

As to `CCOc1ccc(Nc2cc(=O)[nH]c(=O)[nH]2)cc1`, the T/C is 95 % of control under setting [6], 93 % of control under setting [7] and 95 % of control under setting [8].

Regarding `CC1=NCCCN=C(C)C(C)=NCCCN=C1C.[Ni+2].[O-][Cl+3]([O-])([O-])O`, the T/C is 91 % of control (endpoint: mean survival time, dose: 25.0 mg/kg/injection, schedule: Q04DX003 (ip), vehicle: saline); 96 % of control (endpoint: mean survival time, dose: 50.0 mg/kg/injection, schedule: Q04DX002 (ip), vehicle: saline with Tween-80); 94 % of control under setting [9].

In the case of `O=[N+]([O-])c1ccccc1CSc1ncnc2nc[nH]c12`, the T/C is 110 % of control (endpoint: mean survival time, dose: 50.0 mg/kg/injection, schedule: Q01DX009 (ip), vehicle: saline with Tween-80); 108 % of control under setting [10]; 121 % of control under setting [4]; 110 % of control under setting [11]; 108 % of control (endpoint: mean survival time, dose: 132.0 mg/kg/injection, schedule: Q04DX003 (ip), vehicle: saline with Tween-80); 158 % of control under setting [5].

`CCCCCCCCCCNC1=C(Cl)C(=O)c2ccccc2C1=O`: the T/C reads like this: (endpoint: mean survival time, dose: 25.0 mg/kg/injection, schedule: Q04DX003 (ip), vehicle: saline with Tween-80) 98 % of control; under setting [10], 94 % of control; under setting [11], 95 % of control.

For the compound `CCN(CC)C(C)C(=O)Nc1c(C)cccc1Cl` (stereo not given), the T/C (endpoint: mean survival time, dose: 25.0 mg/kg/injection, schedule: Q01DX009 (ip), vehicle: saline) was 92 % of control and the T/C (endpoint: mean survival time, dose: 100.0 mg/kg/injection, schedule: Q01DX001 (ip), vehicle: saline) was 109 % of control.

Regarding `O=[N+]([O-])c1cccc(N=C(Nc2cccc([N+](=O)[O-])c2)c2ccccc2)c1`, the T/C under setting [11] was 113 % of control, the T/C under setting [12] was 107 % of control and the T/C under setting [13] is 103 % of control.

Take `CCCCCCCCCCC(N)C(=O)O` (stereo not given): the T/C is 95 % of control under setting [1]; 100 % of control under setting [14]; 92 % of control under setting [2]; 97 % of control under setting [15]; 95 % of control under setting [3]; 96 % of control (endpoint: mean survival time, dose: 400.0 mg/kg/injection, schedule: Q04DX003 (ip), vehicle: saline).

As to `CC(=O)Nc1ccc(Nc2ccc(C(=C3C=CC(=[N+](C)CCC#N)C=C3)c3ccc(N(C)CCC#N)cc3)cc2)cc1`, the T/C is, setting by setting: (endpoint: mean survival time, dose: 12.0 mg/kg/injection, schedule: Q01DX009 (ip), vehicle: saline with Tween-80) 107 % of control; (endpoint: mean survival time, dose: 12.5 mg/kg/injection, schedule: Q01DX009 (ip), vehicle: saline with Tween-80) 107 % of control; (endpoint: mean survival time, dose: 25.0 mg/kg/injection, schedule: Q01DX009 (ip), vehicle: saline with Tween-80) 105 % of control and 109 % of control; (endpoint: mean survival time, dose: 200.0 mg/kg/injection, schedule: Q04DX002 (ip), vehicle: saline with Tween-80) 106 % of control.

Consider `CCCCC(NC(=O)CN)C(=O)O` (stereo not given), for which the T/C is 111 % of control (endpoint: mean survival time, dose: 75.0 mg/kg/injection, schedule: Q04DX002 (ip), vehicle: saline with Tween-80); 91 % of control (endpoint: mean survival time, dose: 150.0 mg/kg/injection, schedule: Q04DX002 (ip), vehicle: saline with Tween-80); 106 % of control (endpoint: mean survival time, dose: 300.0 mg/kg/injection, schedule: Q04DX002 (ip), vehicle: saline with Tween-80).

On to `C[CH2][Sn]1([CH2]C)[O]C2C(CO)OC(n3ccc(=O)[nH]c3=O)C2[O]1` (stereo not given), for which the T/C by setting is: (endpoint: mean survival time, dose: 1.56 mg/kg/injection, schedule: Q01DX005 (ip), vehicle: water) 103 % of control; (endpoint: mean survival time, dose: 3.13 mg/kg/injection, schedule: Q01DX005 (ip), vehicle: water) 102 % of control; (endpoint: mean survival time, dose: 6.25 mg/kg/injection, schedule: Q01DX005 (ip), vehicle: water) 96 % of control; (endpoint: mean survival time, dose: 12.5 mg/kg/injection, schedule: Q01DX005 (ip), vehicle: other) 104 % of control.

Turning to `Cc1cc(C)c(O)c(C)c1C`, the T/C (endpoint: mean survival time, dose: 31.25 mg/kg/injection, schedule: Q01DX009 (ip), vehicle: saline) is 100 % of control; the T/C (endpoint: mean survival time, dose: 62.5 mg/kg/injection, schedule: Q01DX009 (ip), vehicle: saline) is 91 % of control; the T/C (endpoint: mean survival time, dose: 125.0 mg/kg/injection, schedule: Q01DX009 (ip), vehicle: saline) was 95 % of control; the T/C (endpoint: mean survival time, dose: 250.0 mg/kg/injection, schedule: Q01DX009 (ip), vehicle: saline) was 93 % of control.

`CN1CC(C(=O)NC2CCCCC2)CC2c3cccc4[nH]cc(c34)CC21` (stereo not given): the T/C under setting [9] was 96 % of control, the T/C under setting [14] is 92 % of control and the T/C under setting [15] was 102 % of control.

As to `Nc1cccc2ccc(O)cc12`, the T/C is 96 % of control under setting [16]; 86 % of control under setting [17]; 104 % of control (endpoint: mean survival time, dose: 400.0 mg/kg/injection, schedule: Q01DX001 (ip), vehicle: Klucel (hydroxypropylcellulose) (HPC)).

`COC(=O)C(C(=O)OC(C)C)C(=O)OC(C)C`: the T/C is 105 % of control (endpoint: mean survival time, dose: 50.0 mg/kg/injection, schedule: Q01DX001 (ip), vehicle: Klucel (hydroxypropylcellulose) (HPC)); 96 % of control under setting [16]; 99 % of control under setting [17].

For `Sc1ccc(Cl)cc1`, the T/C reads like this: under setting [6], 98 % of control; under setting [7], 98 % of control; under setting [8], 102 % of control.

As for `Cc1cccc(Cl)c1NC(=O)CCCl`, the T/C runs as follows: under setting [11], 97 % of control; under setting [12], 106 % of control; under setting [13], 98 % of control.

As to `C1CCC(C2CCCC[N-]2)[N-]C1.[Cl][Pt].[NH-]CC(=O)O` (stereo not given), the T/C (endpoint: median survival time, dose: 10.0 mg/kg/injection, schedule: Q04DX003 (ip), vehicle: saline) was 101 % of control; the T/C (endpoint: median survival time, dose: 20.0 mg/kg/injection, schedule: Q04DX003 (ip), vehicle: saline) is 105 % of control; the T/C (endpoint: median survival time, dose: 40.0 mg/kg/injection, schedule: Q04DX003 (ip), vehicle: saline) was 98 % of control; the T/C (endpoint: median survival time, dose: 80.0 mg/kg/injection, schedule: Q04DX003 (ip), vehicle: saline) was 95 % of control and 96 % of control; the T/C (endpoint: median survival time, dose: 160.0 mg/kg/injection, schedule: Q04DX003 (ip), vehicle: saline) is 90 % of control; the T/C (endpoint: median survival time, dose: 320.0 mg/kg/injection, schedule: Q04DX003 (ip), vehicle: saline) is 101 % of control.

On to `OC(c1ccccc1)(c1ccccc1)C(Cc1ccccc1)Cc1ccccc1`, for which the T/C runs as follows: under setting [11], 102 % of control; under setting [12], 100 % of control; under setting [13], 94 % of control.

With `CSc1nc2[nH]c(C)cc2c(=O)[nH]1`, the T/C is 102 % of control (endpoint: median survival time, dose: 50.0 mg/kg/injection, schedule: Q01DX005 (ip), vehicle: saline); 95 % of control (endpoint: median survival time, dose: 100.0 mg/kg/injection, schedule: Q01DX005 (ip), vehicle: saline); 92 % of control (endpoint: median survival time, dose: 200.0 mg/kg/injection, schedule: Q01DX005 (ip), vehicle: saline).

As for `NC(CSS(=O)(=O)O)=NCC1CCCCC1`, the T/C is 101 % of control and 107 % of control (endpoint: mean survival time, dose: 6.25 mg/kg/injection, schedule: Q04DX002 (ip), vehicle: saline with Tween-80); 104 % of control and 112 % of control (endpoint: mean survival time, dose: 12.5 mg/kg/injection, schedule: Q04DX002 (ip), vehicle: saline with Tween-80); 96 % of control (endpoint: mean survival time, dose: 25.0 mg/kg/injection, schedule: Q04DX002 (ip), vehicle: saline with Tween-80).

With `O=[N+]([O-])c1ccc(/C=N\N=C\c2ccc([N+](=O)[O-])cc2)cc1`, the T/C by setting is: (endpoint: mean survival time, dose: 50.0 mg/kg/injection, schedule: Q01DX009 (ip), vehicle: Klucel (hydroxypropylcellulose) (HPC)) 106 % of control; (endpoint: mean survival time, dose: 100.0 mg/kg/injection, schedule: Q01DX009 (ip), vehicle: Klucel (hydroxypropylcellulose) (HPC)) 106 % of control; (endpoint: mean survival time, dose: 200.0 mg/kg/injection, schedule: Q01DX009 (ip), vehicle: Klucel (hydroxypropylcellulose) (HPC)) 109 % of control.
